Results as given in ChEMBL document CHEMBL5634074, “Azaindole derivatives as potential kinase inhibitors and their SARs elucidation” (Eur J Med Chem, 2023).

Tests used:
[1] = biological target: Phosphatidylinositol 4,5-bisphosphate 3-kinase catalytic subunit alpha isoform (Homo sapiens, UniProt P42336); experiment: Inhibition of PI3Kalpha (unknown origin)
[2] = biological target: Phosphatidylinositol 4,5-bisphosphate 3-kinase catalytic subunit beta isoform (Homo sapiens, UniProt P42338); experiment: Inhibition of PI3Kbeta (unknown origin)
Phosphatidylinositol 4,5-bisphosphate 3-kinase catalytic subunit beta isoform, sequence (P42338 whole entry, canonical isoform): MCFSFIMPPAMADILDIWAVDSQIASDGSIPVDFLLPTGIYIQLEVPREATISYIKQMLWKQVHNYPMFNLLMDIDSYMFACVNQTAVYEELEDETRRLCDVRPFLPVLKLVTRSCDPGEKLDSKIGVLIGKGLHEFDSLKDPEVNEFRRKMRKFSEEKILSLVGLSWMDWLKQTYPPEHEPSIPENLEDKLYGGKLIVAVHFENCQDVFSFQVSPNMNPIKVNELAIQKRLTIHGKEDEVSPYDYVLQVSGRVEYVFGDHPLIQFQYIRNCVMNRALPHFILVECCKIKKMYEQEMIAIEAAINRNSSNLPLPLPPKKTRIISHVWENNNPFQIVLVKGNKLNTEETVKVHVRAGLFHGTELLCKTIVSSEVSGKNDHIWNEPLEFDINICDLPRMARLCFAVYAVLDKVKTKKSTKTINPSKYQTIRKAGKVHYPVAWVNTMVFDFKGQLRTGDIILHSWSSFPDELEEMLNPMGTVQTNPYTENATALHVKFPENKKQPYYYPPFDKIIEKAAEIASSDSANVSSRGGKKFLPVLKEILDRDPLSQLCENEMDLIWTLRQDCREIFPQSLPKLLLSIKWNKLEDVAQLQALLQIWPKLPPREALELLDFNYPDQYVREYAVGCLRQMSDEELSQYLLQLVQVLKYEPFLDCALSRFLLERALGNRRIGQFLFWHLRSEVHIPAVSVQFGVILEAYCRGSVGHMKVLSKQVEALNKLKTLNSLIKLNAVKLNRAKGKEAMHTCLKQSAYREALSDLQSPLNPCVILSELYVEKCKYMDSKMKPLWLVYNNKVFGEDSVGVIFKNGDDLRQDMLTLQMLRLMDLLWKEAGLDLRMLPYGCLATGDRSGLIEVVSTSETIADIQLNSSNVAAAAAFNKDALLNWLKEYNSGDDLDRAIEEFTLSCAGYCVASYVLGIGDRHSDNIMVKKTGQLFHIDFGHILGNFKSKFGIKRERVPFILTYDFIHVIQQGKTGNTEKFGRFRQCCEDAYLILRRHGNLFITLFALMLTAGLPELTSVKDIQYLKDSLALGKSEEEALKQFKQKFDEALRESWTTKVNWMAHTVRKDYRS

[3] = biological target: T1, Phosphatidylinositol 4,5-bisphosphate 3-kinase catalytic subunit delta isoform (Homo sapiens, UniProt O00329); experiment: Inhibition of PI3Kdelta (unknown origin)
T1 sequence (O00329 whole entry): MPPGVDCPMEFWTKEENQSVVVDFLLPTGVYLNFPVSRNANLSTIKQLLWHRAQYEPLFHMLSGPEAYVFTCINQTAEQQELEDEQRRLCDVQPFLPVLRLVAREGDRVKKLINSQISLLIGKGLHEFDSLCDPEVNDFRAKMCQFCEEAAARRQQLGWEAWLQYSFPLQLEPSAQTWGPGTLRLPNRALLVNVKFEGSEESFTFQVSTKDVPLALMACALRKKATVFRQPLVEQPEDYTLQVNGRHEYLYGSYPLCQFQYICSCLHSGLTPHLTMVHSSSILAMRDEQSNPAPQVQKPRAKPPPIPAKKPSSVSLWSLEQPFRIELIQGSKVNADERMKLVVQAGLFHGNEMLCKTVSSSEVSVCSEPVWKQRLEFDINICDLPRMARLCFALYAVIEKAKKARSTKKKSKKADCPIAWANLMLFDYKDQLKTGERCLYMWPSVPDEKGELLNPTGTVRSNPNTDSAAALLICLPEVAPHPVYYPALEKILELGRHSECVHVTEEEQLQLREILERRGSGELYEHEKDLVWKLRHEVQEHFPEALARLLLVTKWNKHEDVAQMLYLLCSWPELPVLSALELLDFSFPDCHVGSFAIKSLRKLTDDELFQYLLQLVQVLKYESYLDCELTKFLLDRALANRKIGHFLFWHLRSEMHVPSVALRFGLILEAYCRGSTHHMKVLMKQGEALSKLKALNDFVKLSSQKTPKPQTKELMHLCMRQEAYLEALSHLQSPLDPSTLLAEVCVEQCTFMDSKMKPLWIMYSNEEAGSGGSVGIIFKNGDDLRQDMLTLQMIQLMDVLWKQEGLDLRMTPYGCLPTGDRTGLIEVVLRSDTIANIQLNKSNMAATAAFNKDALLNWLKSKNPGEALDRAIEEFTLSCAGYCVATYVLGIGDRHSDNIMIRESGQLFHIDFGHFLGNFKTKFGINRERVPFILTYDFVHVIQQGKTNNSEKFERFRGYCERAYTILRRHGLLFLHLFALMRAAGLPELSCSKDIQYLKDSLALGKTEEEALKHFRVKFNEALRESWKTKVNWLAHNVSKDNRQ

[4] = biological target: Phosphatidylinositol 4,5-bisphosphate 3-kinase catalytic subunit gamma isoform (Homo sapiens, UniProt P48736); experiment: Inhibition of PI3Kgamma (unknown origin)
Phosphatidylinositol 4,5-bisphosphate 3-kinase catalytic subunit gamma isoform, sequence (P48736 whole entry, canonical isoform): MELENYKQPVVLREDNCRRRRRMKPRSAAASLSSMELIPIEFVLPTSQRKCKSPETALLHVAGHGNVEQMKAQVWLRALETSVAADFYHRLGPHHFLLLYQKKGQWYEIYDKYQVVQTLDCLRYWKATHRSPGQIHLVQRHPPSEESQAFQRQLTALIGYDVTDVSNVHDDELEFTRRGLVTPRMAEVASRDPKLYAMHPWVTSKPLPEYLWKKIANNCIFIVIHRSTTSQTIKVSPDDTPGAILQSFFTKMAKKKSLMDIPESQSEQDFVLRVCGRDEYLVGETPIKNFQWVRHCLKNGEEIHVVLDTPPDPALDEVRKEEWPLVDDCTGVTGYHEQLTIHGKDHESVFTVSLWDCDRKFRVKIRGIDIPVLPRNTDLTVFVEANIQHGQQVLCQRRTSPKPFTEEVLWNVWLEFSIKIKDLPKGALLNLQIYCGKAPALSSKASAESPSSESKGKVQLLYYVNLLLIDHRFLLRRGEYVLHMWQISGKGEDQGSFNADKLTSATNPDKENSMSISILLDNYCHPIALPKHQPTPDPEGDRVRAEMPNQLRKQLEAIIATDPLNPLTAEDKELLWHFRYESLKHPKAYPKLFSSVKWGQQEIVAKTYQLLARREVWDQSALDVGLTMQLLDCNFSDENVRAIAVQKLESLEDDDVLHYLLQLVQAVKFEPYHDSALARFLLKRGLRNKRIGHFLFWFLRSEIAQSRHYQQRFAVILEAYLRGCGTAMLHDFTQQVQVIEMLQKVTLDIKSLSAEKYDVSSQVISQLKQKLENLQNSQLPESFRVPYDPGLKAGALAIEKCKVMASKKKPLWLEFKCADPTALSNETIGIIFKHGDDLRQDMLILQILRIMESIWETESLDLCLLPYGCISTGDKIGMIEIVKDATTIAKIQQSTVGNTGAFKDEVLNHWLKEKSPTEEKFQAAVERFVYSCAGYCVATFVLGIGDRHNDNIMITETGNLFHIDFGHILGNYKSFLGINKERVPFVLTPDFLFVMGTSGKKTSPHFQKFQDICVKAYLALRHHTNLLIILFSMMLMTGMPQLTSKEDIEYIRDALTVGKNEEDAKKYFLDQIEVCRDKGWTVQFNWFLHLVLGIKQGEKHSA

MCF7 = experiment: Antiproliferative activity against human MCF7 cells assessed as reduction in cell viability measured after 48 hrs by MTT assay; format: functional, cell-based; details: MCF7, 48 h
MDA-MB-231 = format: functional, cell-based; details: Homo sapiens, MDA-MB-231, 48 h
KG-1 = experiment: cells; details: Homo sapiens, KG-1, 72 h
[5] = biological target: Voltage-gated inwardly rectifying potassium channel KCNH2 (Homo sapiens, UniProt Q12809); experiment: Inhibition of hERG (unknown origin); format: toxicity
Voltage-gated inwardly rectifying potassium channel KCNH2, sequence (Q12809 whole entry): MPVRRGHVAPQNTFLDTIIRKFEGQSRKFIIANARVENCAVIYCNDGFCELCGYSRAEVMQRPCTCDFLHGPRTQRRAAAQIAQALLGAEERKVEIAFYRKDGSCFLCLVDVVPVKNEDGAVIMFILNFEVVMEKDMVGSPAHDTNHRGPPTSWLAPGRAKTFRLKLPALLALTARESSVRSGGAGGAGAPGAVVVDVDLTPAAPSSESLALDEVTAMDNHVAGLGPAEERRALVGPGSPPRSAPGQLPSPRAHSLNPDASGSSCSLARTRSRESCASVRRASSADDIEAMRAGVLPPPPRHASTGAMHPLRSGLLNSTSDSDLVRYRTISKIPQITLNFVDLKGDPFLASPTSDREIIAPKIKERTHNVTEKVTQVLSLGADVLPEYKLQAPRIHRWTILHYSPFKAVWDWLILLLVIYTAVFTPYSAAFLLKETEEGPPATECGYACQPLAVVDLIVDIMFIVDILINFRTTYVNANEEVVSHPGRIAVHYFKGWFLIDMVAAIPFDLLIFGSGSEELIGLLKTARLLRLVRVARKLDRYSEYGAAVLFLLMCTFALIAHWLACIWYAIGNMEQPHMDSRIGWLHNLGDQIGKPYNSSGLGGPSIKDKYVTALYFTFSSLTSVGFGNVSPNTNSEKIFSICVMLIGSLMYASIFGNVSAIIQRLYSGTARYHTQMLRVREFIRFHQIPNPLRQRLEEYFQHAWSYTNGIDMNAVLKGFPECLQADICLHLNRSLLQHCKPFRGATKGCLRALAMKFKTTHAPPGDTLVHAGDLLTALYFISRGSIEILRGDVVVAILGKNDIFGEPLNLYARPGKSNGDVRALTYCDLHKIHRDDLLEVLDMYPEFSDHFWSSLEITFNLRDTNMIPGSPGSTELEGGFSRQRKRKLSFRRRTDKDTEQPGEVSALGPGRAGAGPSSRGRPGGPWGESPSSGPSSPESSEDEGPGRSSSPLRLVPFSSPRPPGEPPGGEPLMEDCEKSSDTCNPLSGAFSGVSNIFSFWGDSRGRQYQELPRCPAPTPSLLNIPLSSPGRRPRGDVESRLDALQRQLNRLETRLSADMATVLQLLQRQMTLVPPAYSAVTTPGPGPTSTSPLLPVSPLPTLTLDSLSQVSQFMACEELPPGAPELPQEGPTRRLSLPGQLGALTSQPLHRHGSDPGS

[6] = biological target: Proto-oncogene tyrosine-protein kinase receptor Ret (Homo sapiens, UniProt P07949); experiment: Inhibition of RET (unknown origin) by DiscoverX KINOMEscan assay
[7] = biological target: [Pyruvate dehydrogenase (acetyl-transferring)] kinase isozyme 1, mitochondrial (Homo sapiens, UniProt Q15118); experiment: Inhibition of PDK1 (unknown origin) incubated for 30 mins followed by substrate addition measured after 60 mins in presence of ATP by ADP-Glo luminescent assay
[Pyruvate dehydrogenase (acetyl-transferring)] kinase isozyme 1, mitochondrial, sequence (Q15118 whole entry): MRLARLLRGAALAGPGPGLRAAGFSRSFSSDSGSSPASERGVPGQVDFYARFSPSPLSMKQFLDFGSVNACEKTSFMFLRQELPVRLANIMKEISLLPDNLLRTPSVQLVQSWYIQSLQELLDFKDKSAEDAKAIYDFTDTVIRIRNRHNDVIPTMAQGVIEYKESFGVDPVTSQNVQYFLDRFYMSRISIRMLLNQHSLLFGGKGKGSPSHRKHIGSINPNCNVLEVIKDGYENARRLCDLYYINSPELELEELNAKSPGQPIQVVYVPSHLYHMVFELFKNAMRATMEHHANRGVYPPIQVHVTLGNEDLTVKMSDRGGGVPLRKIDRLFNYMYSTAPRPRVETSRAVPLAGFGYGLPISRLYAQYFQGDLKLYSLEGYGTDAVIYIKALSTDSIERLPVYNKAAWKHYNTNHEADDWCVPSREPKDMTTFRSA

PSN1 = format: functional, cell-based; details: Homo sapiens, PSN1, 72 h
[8] = biological target: T2, Receptor-interacting serine/threonine-protein kinase 1 (Homo sapiens, UniProt Q13546); experiment: Inhibition of human RIPK1 by ADP-Glo assay
T2 sequence (Q13546 whole entry): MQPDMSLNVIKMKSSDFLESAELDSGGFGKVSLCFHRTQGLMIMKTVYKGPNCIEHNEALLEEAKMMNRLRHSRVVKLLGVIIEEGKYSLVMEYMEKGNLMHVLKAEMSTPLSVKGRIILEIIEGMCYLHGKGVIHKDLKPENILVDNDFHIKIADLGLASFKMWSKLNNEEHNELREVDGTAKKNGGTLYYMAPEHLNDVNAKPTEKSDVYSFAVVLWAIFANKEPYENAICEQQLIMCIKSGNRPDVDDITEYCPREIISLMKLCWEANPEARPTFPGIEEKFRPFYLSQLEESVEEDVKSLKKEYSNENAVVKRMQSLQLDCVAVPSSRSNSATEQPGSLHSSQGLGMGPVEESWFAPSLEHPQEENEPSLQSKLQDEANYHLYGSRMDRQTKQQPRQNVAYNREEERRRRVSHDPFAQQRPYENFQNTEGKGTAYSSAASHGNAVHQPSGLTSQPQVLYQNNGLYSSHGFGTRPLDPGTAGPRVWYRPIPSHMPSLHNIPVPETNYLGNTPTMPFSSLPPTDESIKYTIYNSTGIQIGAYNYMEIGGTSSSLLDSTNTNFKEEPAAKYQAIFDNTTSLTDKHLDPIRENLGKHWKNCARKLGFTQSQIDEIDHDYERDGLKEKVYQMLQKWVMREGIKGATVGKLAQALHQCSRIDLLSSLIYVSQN

[9] = biological target: Receptor-interacting serine/threonine-protein kinase 3 (Homo sapiens, UniProt Q9Y572); experiment: Inhibition of RIPK3 (unknown origin)
[10] = Efflux ratio of apparent permeability across basolateral to apical side over apical to basolateral side in dog MDCK-MDR1 cells at 5 uM incubated for 90 mins by LC-MS/MS analysis; format: ADME, cell-based, Canis lupus familiaris
[11] = biological target: T2, Receptor-interacting serine/threonine-protein kinase 1; experiment: Inhibition of RIPK1 (unknown origin)
Dengue virus = experiment: Antiviral activity against DENV infected in human Huh-7 cells assessed as reduction in viral growth incubated for 72 hrs by flow cytometry; format: functional, organism-based; details: Huh-7, 72 h
[12] = biological target: High affinity nerve growth factor receptor (Homo sapiens, UniProt P04629); experiment: Inhibition of TRKA (unknown origin) by Ambit kinase assay

Phosphatidylinositol 4,5-bisphosphate 3-kinase catalytic subunit alpha isoform, sequence (P42336 whole entry, canonical isoform): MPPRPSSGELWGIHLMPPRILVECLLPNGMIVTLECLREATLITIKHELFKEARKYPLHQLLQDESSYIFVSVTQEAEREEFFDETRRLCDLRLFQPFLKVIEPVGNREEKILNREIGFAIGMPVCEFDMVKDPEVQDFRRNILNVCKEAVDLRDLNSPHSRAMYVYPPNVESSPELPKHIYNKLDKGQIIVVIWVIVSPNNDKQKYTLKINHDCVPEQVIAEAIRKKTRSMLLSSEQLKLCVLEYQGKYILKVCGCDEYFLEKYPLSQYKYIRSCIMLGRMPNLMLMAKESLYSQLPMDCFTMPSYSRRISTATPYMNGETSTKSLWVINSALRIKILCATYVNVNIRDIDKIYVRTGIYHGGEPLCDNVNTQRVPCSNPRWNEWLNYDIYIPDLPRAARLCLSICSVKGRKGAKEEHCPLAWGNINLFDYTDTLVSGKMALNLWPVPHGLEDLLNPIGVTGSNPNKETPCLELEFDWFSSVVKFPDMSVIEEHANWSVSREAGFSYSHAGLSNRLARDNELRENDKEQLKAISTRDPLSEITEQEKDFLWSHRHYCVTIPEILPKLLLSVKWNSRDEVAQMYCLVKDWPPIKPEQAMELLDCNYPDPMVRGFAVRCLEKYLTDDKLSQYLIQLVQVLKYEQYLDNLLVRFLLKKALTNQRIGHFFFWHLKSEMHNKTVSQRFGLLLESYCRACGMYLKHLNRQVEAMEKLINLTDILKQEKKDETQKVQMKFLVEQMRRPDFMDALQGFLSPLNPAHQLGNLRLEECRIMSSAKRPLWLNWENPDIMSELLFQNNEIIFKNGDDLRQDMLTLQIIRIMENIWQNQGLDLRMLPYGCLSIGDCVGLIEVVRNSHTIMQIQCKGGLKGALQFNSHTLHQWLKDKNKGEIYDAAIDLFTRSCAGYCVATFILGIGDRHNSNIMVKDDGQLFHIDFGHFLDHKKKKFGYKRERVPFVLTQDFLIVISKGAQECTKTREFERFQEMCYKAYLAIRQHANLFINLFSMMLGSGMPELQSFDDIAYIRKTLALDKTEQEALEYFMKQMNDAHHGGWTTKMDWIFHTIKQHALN

O=S(=O)(Nc1cc(-c2cnc3[nH]cc(-c4ccc(N5CCOCC5)nc4)c3c2)cnc1Cl)c1ccccc1
IC50 [1]: 0.3 nM
IC50 [2]: 0.3 nM
IC50 [3]: 0.3 nM
IC50 [4]: 0.3 nM
IC50 (MCF7): 1190 nM
IC50 (MDA-MB-231): 450 nM

NC(=O)c1cc(Cl)c2c(Cl)c(C#CC3CC3)n(C3CCCNC3)c2n1 (centres undefined)
IC50 (KG-1): < 100 nM

NC(=O)c1cc(Cl)c2c(Cl)c(C3CC3)n(C3CCCNC3)c2n1 (centres undefined)
IC50 [5]: 1000 nM
IC50 (KG-1): < 100 nM

O=S(=O)(Nc1cc(-c2cnc3[nH]cc(-c4cnn(CCN5CCOCC5)c4)c3c2)cnc1Cl)c1ccccc1
IC50 [1]: 0.3 nM
IC50 [2]: 0.3 nM
IC50 [3]: 0.3 nM
IC50 [4]: 0.3 nM
IC50 (MCF7): 6000 nM
IC50 (MDA-MB-231): 1200 nM

CN1CCN(Cc2ccc(NC(=O)c3cccc(/N=N/c4cnc5[nH]ccc5c4)c3)cc2C(F)(F)F)CC1
IC50 [6]: 50 nM

Cn1cc(-c2nnc(N)nc2-c2c[nH]c3ccc(F)cc23)c2cc(Br)cnc21
IC50 [7]: 30 nM
IC50 (PSN1): 3300 nM

O=C(c1ccc(-c2cc3cccnc3[nH]2)cc1)N1CCOCC1
IC50 [8]: 80 nM
IC50 [9]: > 20000 nM

Cn1cc(-c2nc(N)nnc2-c2c[nH]c3ccc(Br)cc23)c2cc(Br)cnc21
IC50 [7]: 30 nM
IC50 (PSN1): 3300 nM

Cc1cc(-n2cc(C(=O)N3CCO[C@@H](C)C3)c3ccc(OC(C)c4ccc(F)cn4)nc32)n[nH]1 (some centres undefined)
efflux ratio at 1.5 h, 5 µM [10]: 1

NC(=O)c1ccc(-c2cc3cccnc3[nH]2)cc1
IC50 [11]: 90 nM

COc1ccc(-c2cnc3[nH]cc(C#Cc4cccnc4)c3c2)cc1OC
EC50 (Dengue virus): 720 nM

Cn1cc(-c2nc(N)nnc2-c2c[nH]c3ccc(F)cc23)c2cc(Br)cnc21
IC50 [7]: 30 nM
IC50 (PSN1): 3300 nM

NC(=O)c1cc(Cl)c2c(Cl)c(I)n(C3CCCNC3)c2n1 (centres undefined)
IC50 [5]: 1000 nM
IC50 (KG-1): < 100 nM

Cc1cc(-n2cc(C(=O)N3CCOCC3)c3ccc(N[C@@H](C)c4ccc(F)cn4)nc32)[nH]n1
IC50 [12]: 2.5 nM
efflux ratio at 1.5 h, 5 µM [10]: 18

Cn1cc(-c2nnc(N)nc2-c2c[nH]c3ccc(Br)cc23)c2cc(Br)cnc21
IC50 [7]: 30 nM
IC50 (PSN1): 3300 nM

Oc1ccc(-c2cnc3[nH]ccc3c2)cc1
IC50 [11]: 1470 nM
